Here are results for 10 compounds from article PMC3408624 (Chemistry & biology, 2012).

“Also recorded” adds a separate entry of the source. Like-named read-outs stand apart in the source and are kept apart here.

The target of experiment [1] is T1, anthrax lethal factor (LF) (Bacillus anthracis, UniProt P15917). Briefly: biochemical. It counts as biochemical.
The test system of experiment [2] is RAW264.7 cells. Type of experiment: cell-based.
Experiment [3] has as its system RAW264.7 cells. Type of experiment: cell-based. The source holds these as a separate data set.
Experiment [4] has as its target LF cleavage of endogenous MKK3 and MKK4 in RAW264.7 cell lysate (Bacillus anthracis, UniProt P15917). Type of experiment: biochemical.
Experiment [5] addresses T1, anthrax lethal factor (LF). Briefly: biochemical. It counts as biochemical. The source holds these as a separate data set.
Experiment [6] deals with T1, anthrax lethal factor (LF). Type of experiment: biochemical.
The mark [7] stands for this setting: read-out: IC50 (µM), MKK6 cleavage.

LF cleavage of endogenous MKK3 and MKK4 in RAW264.7 cell lysate, sequence (P15917 34-809 limits assumed): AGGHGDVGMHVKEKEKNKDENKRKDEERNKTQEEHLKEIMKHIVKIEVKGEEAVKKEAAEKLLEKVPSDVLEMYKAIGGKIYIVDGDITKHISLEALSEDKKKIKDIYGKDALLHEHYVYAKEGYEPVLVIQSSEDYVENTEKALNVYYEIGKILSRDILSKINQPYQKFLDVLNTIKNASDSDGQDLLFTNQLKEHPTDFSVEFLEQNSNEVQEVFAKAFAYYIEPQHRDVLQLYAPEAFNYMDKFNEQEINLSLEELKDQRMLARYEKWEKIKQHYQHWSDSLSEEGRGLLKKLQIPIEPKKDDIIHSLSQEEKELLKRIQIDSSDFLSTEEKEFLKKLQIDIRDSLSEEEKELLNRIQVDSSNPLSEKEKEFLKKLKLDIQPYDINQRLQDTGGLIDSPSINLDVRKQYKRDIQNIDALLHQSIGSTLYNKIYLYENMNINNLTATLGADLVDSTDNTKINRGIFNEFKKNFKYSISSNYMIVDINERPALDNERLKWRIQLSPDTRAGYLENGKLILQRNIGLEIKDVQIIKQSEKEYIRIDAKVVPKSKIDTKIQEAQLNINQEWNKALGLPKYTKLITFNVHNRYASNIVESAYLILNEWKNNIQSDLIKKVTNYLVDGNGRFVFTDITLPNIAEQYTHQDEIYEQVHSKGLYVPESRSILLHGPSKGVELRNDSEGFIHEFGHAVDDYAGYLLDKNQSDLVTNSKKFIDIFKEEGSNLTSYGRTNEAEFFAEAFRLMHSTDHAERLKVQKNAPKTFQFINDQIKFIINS
T1 sequence (P15917 34-809 limits assumed): as above

With `COC(=O)c1c(OC)cc2c(c1C)Oc1c(Cl)c(O)c(Cl)c(C)c1C(=O)O2` [Compound 4, Gangaleoidin], in experiment [1], the IC50 is more than 250 µM and the “Inhibition of MKK6 cleavage by LF (structure-activity profile, in words)” value is on record as “failed to inhibit LF”.
`COc1cc(C(=O)O)c2c(c1C)OC(=O)c1c(C)cc(O)c(C=O)c1O2` [Compound 3, Parellic acid]: in the experiment on RAW264.7 cells [2], the “Protection against LeTx-induced cell death (MTT viability)” value (from here on “Protection”) is on record as “partial protection”. In addition, the “Inhibition of MKK6 cleavage by LF (structure-activity profile, in words)” value in experiment [1] was “active as inhibitors”. Also, in experiment [1] (setting [7]), the IC50 amounted to 125 ± 20 µM. Besides, the “MKK3 cleavage in intact LeTx-treated cells” value with RAW264.7 cells [3] was “decreased MKK3 cleavage”. In experiment [4], the “Inhibition of MKK3 cleavage by LF in cell lysate” value (“Inhibition of MKK3 cleavage by LF” for short) was “inhibited cleavage” and the “Inhibition of MKK4 cleavage by LF in cell lysate” value (“Inhibition of MKK4 cleavage by LF” below) is recorded as “inhibited cleavage”. Besides, the “Inhibition of LF cleavage of a peptide substrate (in words)” value (shortened to “Inhibition of LF cleavage … (in words)”) in experiment [5] is “weak inhibitors”.
For Reduced stictic acid [Compound 8], in experiment [1] (setting [7]), the IC50 is more than 250 µM.
For `COc1ccccc1C=O` [o-anisaldehyde, reference compound], the “Inhibition of MKK6 cleavage by LF (in words)” value in experiment [1] is listed as “no detectable inhibition”.
For `COc1cc(C)c2c(c1C=O)Oc1c(c(C)c(O)c3c1C(O)OC3=O)OC2=O` (centres unmarked) [Compound 1, Stictic acid], in the experiment with RAW264.7 cells [2], the “Protection” value was “partial protection”. This compound yielded an IC50 in experiment [1] of 24 ± 3 µM. For the same compound, the “MKK3 cleavage in intact LeTx-treated cells” value with RAW264.7 cells [3] is on record as “decreased MKK3 cleavage”. In addition, in experiment [4], the “Inhibition of MKK3 cleavage by LF” value is listed as “inhibited cleavage” and the “Inhibition of MKK4 cleavage by LF” value is “inhibited cleavage”. Also, the “Inhibition of LF cleavage … (in words)” value in experiment [5] is given as “weak inhibitors”.
Take `CNC(=O)[C@H](Cc1c[nH]c2ccccc12)NC(=O)[C@@H](CC(=O)NO)CC(C)C` [GM6001, reference compound]: in experiment [5], the IC50 stood at 9 µM. The “Result in primary FP screen for inhibition of LF cleavage of labeled MKK6” value in experiment [6] was “scored as a hit”.
As for `Cc1cc(OC(=O)c2c(C)cc(O)cc2O)cc(O)c1C(=O)O` [Compound 6, Lecanoric acid], in the experiment with RAW264.7 cells [2], the “Protection” value is listed as “failed to inhibit cell death”. Moreover, in experiment [1], the “IC50 (µM), MKK6 cleavage” value is on record as “No inhibition” and the “Inhibition of MKK6 cleavage by LF (structure-activity profile, in words)” value is reported as “lack of inhibition”.
In the case of `COC(=O)c1c(C)cc(OC(=O)c2c(C)cc(O)c(C=O)c2O)c(C)c1O` [Compound 7, Atranorin], the “Protection” value in the experiment on RAW264.7 cells [2] was “failed to inhibit cell death”. In experiment [1], the “IC50 (µM), MKK6 cleavage” value was “No inhibition” and the “Inhibition of MKK6 cleavage by LF (structure-activity profile, in words)” value was “lack of inhibition”.
As to `Cc1cc(O)c(C=O)c2c1C(=O)Oc1c(CO)c(O)c3c(c1O2)C(O)OC3=O` (centres unmarked) [Compound 2, Salazinic acid], the “Protection” value in the experiment with RAW264.7 cells [2] was “partial protection”. In experiment [1], the “Inhibition of MKK6 cleavage by LF (structure-activity profile, in words)” value is “active as inhibitors” and the “Mode of inhibition of LF cleavage of MKK6” value is given as “competitive inhibition; also recorded: increased KM with no effect on Vmax”. Besides, in experiment [1] (setting [7]), the IC50 was found to be 42 ± 5 µM. Moreover, the “MKK3 cleavage in intact LeTx-treated cells” value in the experiment on RAW264.7 cells [3] was “decreased MKK3 cleavage”. In experiment [4], the “Inhibition of MKK3 cleavage by LF” value is “inhibited cleavage” and the “Inhibition of MKK4 cleavage by LF” value was “inhibited cleavage”. Further, in experiment [5], the “Inhibition of LF cleavage … (in words)” value was “weak inhibitors”.
In the case of `CCCCCC(=O)Cc1cc(O)cc2c1C(=O)Oc1cc(O)c(C(=O)O)c(CCCCC)c1O2` [Compound 5, Physodic acid], in experiment [1], the IC50 is more than 250 µM and the “Inhibition of MKK6 cleavage by LF (structure-activity profile, in words)” value was “failed to inhibit LF”.

What is called IC50 is the point on the concentration scale where inhibition reaches its midpoint.
